Assay results published in the NIST ThermoML archive (doi:10.1021/je050305z).
Numbers after ± are expanded uncertainties.

Settings: Gas, Hot wire method

COC [dimethyl ether]
Settings | thermal conductivity [W/m/K]
355.58 K, 1777.8 kPa | 0.02592 ± 0.00062
355.64 K, 504.3 kPa | 0.02468 ± 0.0006
355.66 K, 2226 kPa | 0.02632 ± 0.00063
355.69 K, 1497.3 kPa | 0.02553 ± 0.00062
355.74 K, 356.1 kPa | 0.02462 ± 0.00059
355.82 K, 1194.9 kPa | 0.02508 ± 0.00061
355.89 K, 156.1 kPa | 0.02441 ± 0.00059
355.97 K, 872.5 kPa | 0.02489 ± 0.0006
356.09 K, 1777.8 kPa | 0.02597 ± 0.00063
356.1 K, 701.6 kPa | 0.02489 ± 0.0006
356.2 K, 504.3 kPa | 0.02488 ± 0.0006
356.21 K, 1497.3 kPa | 0.02554 ± 0.00062
356.31 K, 356.1 kPa | 0.02481 ± 0.0006
356.38 K, 1194.9 kPa | 0.02516 ± 0.00061
356.52 K, 156.1 kPa | 0.02447 ± 0.00059
356.57 K, 872.5 kPa | 0.02502 ± 0.0006
356.72 K, 701.6 kPa | 0.0249 ± 0.0006
356.86 K, 504.3 kPa | 0.02485 ± 0.0006
356.98 K, 356.1 kPa | 0.02475 ± 0.0006
357.23 K, 156.1 kPa | 0.02456 ± 0.00059
364.94 K, 2198.1 kPa | 0.02782 ± 0.00067
365.09 K, 1801.9 kPa | 0.02689 ± 0.00065
365.2 K, 1500.1 kPa | 0.0265 ± 0.00064
365.3 K, 1202 kPa | 0.02622 ± 0.00063
365.42 K, 906.2 kPa | 0.02606 ± 0.00063
365.51 K, 697.2 kPa | 0.02598 ± 0.00063
365.51 K, 2198.1 kPa | 0.02789 ± 0.00067
365.59 K, 481.6 kPa | 0.026 ± 0.00063
365.68 K, 346.3 kPa | 0.02589 ± 0.00062
365.7 K, 1801.9 kPa | 0.0271 ± 0.00065
365.81 K, 1500.1 kPa | 0.02669 ± 0.00064
365.86 K, 156.4 kPa | 0.02596 ± 0.00062
365.94 K, 1202 kPa | 0.02635 ± 0.00063
365.99 K, 2198.1 kPa | 0.02796 ± 0.00067
366.1 K, 906.2 kPa | 0.02615 ± 0.00063
366.2 K, 697.2 kPa | 0.02609 ± 0.00063
366.23 K, 1801.9 kPa | 0.02723 ± 0.00065
366.31 K, 481.6 kPa | 0.02599 ± 0.00063
366.35 K, 1500.1 kPa | 0.02675 ± 0.00064
366.42 K, 346.3 kPa | 0.02597 ± 0.00062
366.52 K, 1202 kPa | 0.02642 ± 0.00064
366.66 K, 156.4 kPa | 0.02591 ± 0.00062
366.7 K, 906.2 kPa | 0.02622 ± 0.00063
366.82 K, 697.2 kPa | 0.02608 ± 0.00063
366.96 K, 481.6 kPa | 0.02612 ± 0.00063
367.09 K, 346.3 kPa | 0.02604 ± 0.00063
367.38 K, 156.4 kPa | 0.02597 ± 0.00062
374.95 K, 2704.4 kPa | 0.03029 ± 0.00072
375.17 K, 2197.8 kPa | 0.02893 ± 0.00069
375.29 K, 1766.8 kPa | 0.02826 ± 0.00068
375.36 K, 1499.6 kPa | 0.02784 ± 0.00067
375.46 K, 892.8 kPa | 0.02733 ± 0.00066
375.49 K, 1198.6 kPa | 0.02756 ± 0.00066
375.49 K, 2704.4 kPa | 0.03041 ± 0.00073
375.54 K, 707.6 kPa | 0.02738 ± 0.00066
375.63 K, 507.4 kPa | 0.02734 ± 0.00066
375.72 K, 354 kPa | 0.02727 ± 0.00065
375.76 K, 2197.8 kPa | 0.0291 ± 0.0007
375.9 K, 152.4 kPa | 0.02713 ± 0.00065
375.92 K, 1766.8 kPa | 0.02831 ± 0.00068
375.95 K, 2704.4 kPa | 0.03051 ± 0.00073
375.97 K, 1499.6 kPa | 0.02793 ± 0.00067
376.14 K, 892.8 kPa | 0.02756 ± 0.00066
376.17 K, 1198.6 kPa | 0.0277 ± 0.00066
376.22 K, 707.6 kPa | 0.02749 ± 0.00066
376.28 K, 2197.8 kPa | 0.02917 ± 0.0007
376.35 K, 507.4 kPa | 0.02737 ± 0.00066
376.45 K, 354 kPa | 0.02739 ± 0.00066
376.46 K, 1766.8 kPa | 0.02837 ± 0.00068
376.56 K, 1499.6 kPa | 0.02791 ± 0.00067
376.68 K, 152.4 kPa | 0.02726 ± 0.00065
376.72 K, 892.8 kPa | 0.02758 ± 0.00066
376.75 K, 1198.6 kPa | 0.02773 ± 0.00067
376.81 K, 707.6 kPa | 0.02751 ± 0.00066
376.96 K, 507.4 kPa | 0.0274 ± 0.00066
377.08 K, 354 kPa | 0.02742 ± 0.00066
377.4 K, 152.4 kPa | 0.0273 ± 0.00065
384.94 K, 3297.7 kPa | 0.03329 ± 0.00079
385.16 K, 2700.7 kPa | 0.03115 ± 0.00074
385.35 K, 2197 kPa | 0.02995 ± 0.00072
385.44 K, 3297.7 kPa | 0.03354 ± 0.0008
385.48 K, 1805.7 kPa | 0.02946 ± 0.0007
385.56 K, 1500.6 kPa | 0.02919 ± 0.0007
385.66 K, 1201.3 kPa | 0.02897 ± 0.00069
385.74 K, 2700.7 kPa | 0.03126 ± 0.00075
385.77 K, 899.9 kPa | 0.02885 ± 0.00069
385.93 K, 503.9 kPa | 0.02857 ± 0.00068
385.95 K, 703 kPa | 0.0288 ± 0.00069
385.98 K, 2197 kPa | 0.0301 ± 0.00072
386 K, 3297.7 kPa | 0.03358 ± 0.0008
386.01 K, 355.6 kPa | 0.02861 ± 0.00068
386.13 K, 1805.7 kPa | 0.02959 ± 0.00071
386.2 K, 156.6 kPa | 0.02852 ± 0.00068
386.22 K, 1500.6 kPa | 0.02926 ± 0.0007
386.33 K, 1201.3 kPa | 0.02917 ± 0.0007
386.38 K, 2700.7 kPa | 0.03136 ± 0.00075
386.48 K, 899.9 kPa | 0.02895 ± 0.00069
386.5 K, 2197 kPa | 0.03017 ± 0.00072
386.6 K, 703 kPa | 0.02886 ± 0.00069
386.65 K, 503.9 kPa | 0.02873 ± 0.00069
386.65 K, 1805.7 kPa | 0.02964 ± 0.00071
386.74 K, 1500.6 kPa | 0.02936 ± 0.0007
386.79 K, 355.6 kPa | 0.02867 ± 0.00069
386.93 K, 1201.3 kPa | 0.02916 ± 0.0007
387.03 K, 156.6 kPa | 0.02858 ± 0.00068
387.08 K, 899.9 kPa | 0.02903 ± 0.00069
387.21 K, 703 kPa | 0.02901 ± 0.00069
387.32 K, 503.9 kPa | 0.02881 ± 0.00069
387.44 K, 355.6 kPa | 0.02881 ± 0.00069
387.74 K, 156.6 kPa | 0.02859 ± 0.00068
